Results: PubChem BioAssay (NCI)
“And” between values parts separate entries of the source, which are not always exact repeats. Equal values may be shown once.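 Assay format: 96-well plates, 48-hour exposure. Here, GI50 denotes the concentration required for 50% inhibition of growth. TGI marks complete inhibition of growth.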

Columns and labels:
Assay in all cases: DTP human tumour cell line panel, 48 h
[1] = tested on: KM12 colon
[2] = tested on: SNB-75 CNS
[3] = tested on: NCI-H23 lung
[4] = tested on: CCRF-CEM leukemia
[5] = tested on: UO-31 renal
[6] = tested on: NCI-H226 lung
[7] = tested on: SN12C renal
[8] = tested on: ACHN renal
[9] = tested on: U251 CNS
[10] = tested on: SNB-19 CNS
[11] = tested on: HCC-2998 colon
[12] = tested on: SW-620 colon
[13] = tested on: MDA-N
[14] = tested on: CAKI-1 renal
[15] = tested on: BT-549 breast
[16] = tested on: NCI/ADR-RES ovarian

Row | SMILES | TGI [1] | TGI [2] | TGI [3] | TGI [4] | TGI [5] | TGI [6] | TGI [7] | TGI [8] | TGI [9] | TGI [10] | TGI [11] | TGI [12] | TGI [13] | TGI [14] | TGI [15] | TGI [16] | GI50 [16] | GI50 [1] | GI50 [14]
1 | CSc1ccc2c(cc1=O)C(NC(=O)c1ccc(OC(C)=O)cc1)CCc1cc(O)c(O)c(O)c1-2 (stereo not given) | > 100 µM | 55.6 µM | 67.7 µM | > 100 µM | > 100 µM | 50.8 µM | 31.6 µM | > 100 µM | 39 µM | > 100 µM | > 100 µM | 29.5 µM | – | – | – | – | – | – | –
2 | Cc1ccc(CS(=O)(=O)C/N=c2\sc3ccccc3nc2/C=C(\O)c2ccc(Cl)cc2)cc1 | > 10 µM | > 10 µM | > 10 µM | – | – | – | > 10 µM | > 10 µM | > 10 µM | > 10 µM | > 10 µM | > 10 µM | > 10 µM | > 10 µM | > 10 µM | > 10 µM | – | – | –
3 | NC(=S)N1N=C2c3ccccc3CC[C@H]2[C@@H]1c1cccs1 | > 100 µM | – | 87.9 µM | 81.5 µM | > 100 µM | > 100 µM | > 100 µM | > 100 µM | > 100 µM | > 100 µM | > 100 µM | > 100 µM | – | – | – | – | – | – | –
4 | O=C1c2nn(-c3ccccc3)nc2C(c2ccccc2)N1c1ccccc1 (stereo not given) | > 100 µM | 81.2 µM | > 100 µM | > 100 µM | > 100 µM | > 100 µM | > 100 µM | > 100 µM | > 100 µM | > 100 µM | > 100 µM | > 100 µM | – | > 100 µM | – | – | – | – | –
5 | CCOc1ccc(N=Nc2ccc3oc(=O)c(C(=O)Nc4ccc(OC)cc4)cc3c2)cc1 | > 100 µM | 93.7 µM | 56.9 µM | 25.4 µM | 78 µM | – | > 100 µM | – | 61.1 µM | 46.6 µM | 36.8 µM | > 100 µM | – | > 100 µM | – | – | – | – | –
6 | NCC(NC(=O)OCc1ccccc1)C(=O)O (stereo not given) | > 50 µM | > 50 µM | > 50 µM | > 50 µM | > 50 µM | > 50 µM | > 50 µM | > 50 µM | > 50 µM | > 50 µM | > 50 µM | > 50 µM | – | > 50 µM | – | – | – | – | –
7 | O=c1c2ccccc2nc(-c2ccccc2)n1NC(=S)Nc1ccc(Cl)cc1[N+](=O)[O-] | > 100 µM | > 100 µM | > 100 µM | > 100 µM | > 100 µM | 82.4 µM | > 100 µM | > 100 µM | > 100 µM | – | – | > 100 µM | – | > 100 µM | – | – | – | – | –
8 | CC1(C)C2CCC3(OCCO3)C1C1OC12 (stereo not given) | > 100 µM | > 100 µM | > 100 µM | > 100 µM | > 100 µM | > 100 µM | – | > 100 µM | > 100 µM | > 100 µM | – | > 100 µM | – | > 100 µM | – | – | – | – | –
9 | Cc1nc2ccccc2c(=O)n1NC(=O)c1ccccc1O | > 100 µM | > 100 µM | > 100 µM | > 100 µM | > 100 µM | > 100 µM | > 100 µM | > 100 µM | > 100 µM | > 100 µM | > 100 µM | > 100 µM | > 100 µM | – | > 100 µM | – | – | – | –
10 | O=C1NC(=O)C(C(c2ccc(Cl)cc2)C2C(=O)NC(=O)NC2=O)C(=O)N1 | > 100 µM | – | > 100 µM | > 100 µM | > 100 µM | > 100 µM | > 100 µM | > 100 µM | > 100 µM | > 100 µM | – | > 100 µM | > 100 µM | > 100 µM | > 100 µM | > 100 µM | – | – | –
11 | CC(C)C(=O)/C=C/c1ccc(Cl)cc1 | 23.8 µM | 33.4 µM | 44.7 µM | 51.7 µM | 24.5 µM | – | 21.7 µM | 28.5 µM | 25.5 µM | 28.1 µM | 31.9 µM | 16.3 µM | – | – | – | – | – | – | –
12 | COC(=O)C1C2C=CC(C2)N1S(=O)(=O)c1ccccc1 (stereo not given) | > 100 µM | – | > 100 µM | – | > 100 µM | – | > 100 µM | > 100 µM | > 100 µM | > 100 µM | – | > 100 µM | > 100 µM | > 100 µM | – | > 100 µM | – | – | –
13 | CC(C)c1cccc(C(C)C)c1NC(=O)C(=O)C(C(=O)c1ccc2ccccc2c1)C1OC(=O)c2ccccc21 (stereo not given) | > 100 µM | – | > 100 µM | > 100 µM | > 100 µM | 81.5 µM | > 100 µM | > 100 µM | > 100 µM | > 100 µM | > 100 µM | > 100 µM | – | > 100 µM | – | – | – | – | –
14 | O=C1C2CCC(C2)C12CC1(c3ccccc3)C(=O)c3ccccc3N1O2 (stereo not given) | – | > 100 µM | > 100 µM | > 100 µM | > 100 µM | > 100 µM | > 100 µM | > 100 µM | > 100 µM | > 100 µM | > 100 µM | > 100 µM | – | – | – | – | – | – | –
15 | CC(=O)[O-].CC(=O)[O-].[NH2-].[Pt+2].c1ccncc1 | > 100 µM | > 100 µM | > 100 µM | > 100 µM | > 100 µM | > 100 µM | > 100 µM | 32.2 µM | > 100 µM | > 100 µM | > 100 µM | > 100 µM | – | > 100 µM | – | > 100 µM | 80 µM | – | –
16 | COc1ccc([N-]/C(=N\n2c(=O)c(C)nn(C)c2=S)N(c2ccc(OC)cc2)c2nn3c(=O)c(C)n[n+](C)c3s2)cc1 | > 100 µM | > 100 µM | > 100 µM | > 100 µM | – | > 100 µM | > 100 µM | > 100 µM | > 100 µM | > 100 µM | – | > 100 µM | – | – | – | – | – | – | –
17 | COc1ccc(-n2c(C)nc3ccc(NC4OCC(O)C(O)C4O)cc3c2=O)cc1 (stereo not given) | > 100 µM | > 100 µM | > 100 µM | – | > 100 µM | > 100 µM | > 100 µM | > 100 µM | > 100 µM | > 100 µM | > 100 µM | > 100 µM and 72.6 µM | > 100 µM | > 100 µM | > 100 µM | > 100 µM | – | 36.5 µM and > 100 µM | > 100 µM and 39.5 µM
